“And” between values parts separate entries of the source, which are not always exact repeats. Equal values may be shown once.
test: solvent given as SMILES; settings: in C1CCCCC1

Row | SMILES | emission maximum [nm]
1 | c1ccccc1 | 287.36
2 | Cc1ccc(C2=C3C=CC(c4ccccc4)=[N+]3[B-](F)(F)n3c2ccc3-c2ccccc2)cc1 | 585
3 | CC1=[N+]2C(=C(c3ccc(N4CCOCC4)cc3)c3ccc(C)n3[B-]2(F)F)C=C1 | 520
4 | CC1(C)Oc2c(c3nc4ccccc4nc3c3ccccc23)CC1Br (stereo not given) | 431.03
5 | Cc1cc(C)c(C2=C3C=c4c(c5ccc(C(C)(C)C)cc5c5cc(C(C)(C)C)ccc45)=[N+]3[B-](F)(F)n3c2cc2c4ccc(C(C)(C)C)cc4c4cc(C(C)(C)C)ccc4c23)c(C)c1 | 707

same assay, conditions: in C1CCOC1

Row | SMILES | emission maximum
6 | CCCCCCCCn1nnc(-c2ccc(C#Cc3ccc(C#Cc4ccc(-c5nnn(CCCCCCCC)n5)cc4)c4nc5c6ccccc6c6ccccc6c5nc34)cc2)n1 | 495 nm
7 | Cc1ccc(-c2cc3ccccc3oc2=O)cc1 | 410 nm
8 | CC1(C)c2ccccc2N(c2cccc(S(=O)(=O)c3cccc(N4c5ccccc5C(C)(C)c5ccccc54)c3)c2)c2ccccc21 | 422 nm
9 | Cc1ccc(C2=C3C=CC(c4ccccc4)=[N+]3[B-](F)(F)n3c2ccc3-c2ccccc2)cc1 | 586 nm
10 | CC1=[N+]2C(=C(c3ccc(N4CCOCC4)cc3)c3ccc(C)n3[B-]2(F)F)C=C1 | 695 nm and 528 nm
11 | Cc1cc(C)c(C2=C(c3c(C)sc(-c4ccc(-c5nc(-c6ccccc6)c(-c6ccccc6)[nH]5)cc4)c3C)C(F)(F)C(F)(F)C2(F)F)s1 | 393 nm
12 | CC1(C)Oc2c(c3nc4ccccc4nc3c3ccccc23)CC1Br (stereo not given) | 448.83 nm
13 | COC(=O)c1cc(=O)n(C)c2cc(-c3cc4c5c(c3)CCCN5CCC4)sc12 | 502 nm
14 | Cc1cc(C)c(C2=C3C=c4c(c5ccc(C(C)(C)C)cc5c5cc(C(C)(C)C)ccc45)=[N+]3[B-](F)(F)n3c2cc2c4ccc(C(C)(C)C)cc4c4cc(C(C)(C)C)ccc4c23)c(C)c1 | 711 nm
15 | CCCCN1\C(=C/C=C/C=C/C2=[N+](CCCC)c3ccc4ccccc4c3C2(C)C)C(C)(C)c2c1ccc1ccccc21 | 710 nm
16 | CC(C)(C)c1ccc(-c2c(-c3ccc(N(c4ccccc4)c4ccccc4)cc3)c(C#N)c(-c3ccc(N(c4ccccc4)c4ccccc4)cc3)c(-c3ccc(C(C)(C)C)cc3)c2-c2ccc(C(C)(C)C)cc2)cc1 | 443 nm

same assay, conditions: in C1COCCO1

Row | emission maximum [nm] | SMILES
17 | 354 | CCC(C)(C)c1ccc(-c2ccc(-c3ccc(C(C)(C)CC)cc3)cc2)cc1
18 | 449.44 | CC1(C)Oc2c(c3nc4ccccc4nc3c3ccccc23)CC1Br (stereo not given)

Row | SMILES | emission maximum [nm]
19 | Cc1ccc(C2=C3C=CC(c4ccccc4)=[N+]3[B-](F)(F)n3c2ccc3-c2ccccc2)cc1 | 587

same assay, conditions: in CC1CCCO1

Row | emission maximum [nm] | SMILES
20 | 490 | Cn1c(=O)nc2n(C)c3ccccc3nc-2c1=O

same assay, conditions: in CC#N

Row | emission maximum [nm] | SMILES
21 | 473 | COc1cc(C=O)cc(-c2[nH]c(=O)n3c2-c2ccccc2C3=O)c1O
22 | 422 | N#Cc1nn(-c2ccc(F)cc2)nc1N1CCCC1
23 | 557 | COC(=O)/C=C/c1sc(-c2ccc(N(C)C)s2)c(-c2ccsc2)c1N
24 | 549 | CCN(CC)c1ccc2cc3ccc(=[N+](CC)CC)cc-3oc2c1
25 | 370 | N#Cc1cc(C#Cc2c(F)c(F)nc(F)c2F)c(C#Cc2c(F)c(F)nc(F)c2F)cc1C#N
26 | 457.04 | CC1(C)Oc2c(c3nc4ccccc4nc3c3ccccc23)CC1Br (stereo not given)
27 | 610 | Cc1ccc(S(=O)(=O)Nc2c(/C=C/c3ccccc3)sc(-c3ccc(N(C)C)s3)c2-c2cccnc2)cc1
28 | 529 | Cn1c(=O)nc2n(C)c3ccccc3nc-2c1=O
29 | 410 | O=C1C=Cc2cc3ccccc3c(=O)n21
30 | 763 | CCN(CC)c1ccc2c(c1)OC1=C(/C=C/C3=[N+](C)c4ccc5ccccc5c4C3(C)C)CCCC1=C2c1ccccc1C(=O)O
31 | 430 | N#Cc1nn(-c2cccc(C(F)(F)F)c2)nc1N1CCCC1
32 | 435 | Cc1ccc(-c2cc(C)[o+]c(C)c2)cc1

Row | SMILES | emission maximum [nm]
33 | CCCCN1C(=O)C(=C/C=C/C=C/C=C2N(CCCC)c3ccccc3N2CCCC)C(=O)N(CCCC)C1=S | 688
34 | CC1=[N+]2C(=C(c3ccc(N4CCOCC4)cc3)c3ccc(C)n3[B-]2(F)F)C=C1 | 534
35 | COc1cc(/C=C/c2cc[n+](Cc3ccc(Br)cc3)cc2)ccc1O | 557
36 | COC(=O)c1cc(=O)n(C)c2cc(-c3cc4c5c(c3)CCCN5CCC4)sc12 | 511
37 | Cc1cc(C)c(C2=C3C=c4c(c5ccc(C(C)(C)C)cc5c5cc(C(C)(C)C)ccc45)=[N+]3[B-](F)(F)n3c2cc2c4ccc(C(C)(C)C)cc4c4cc(C(C)(C)C)ccc4c23)c(C)c1 | 711
38 | CCCCN1\C(=C/C=C/C=C/C2=[N+](CCCC)c3ccc4ccccc4c3C2(C)C)C(C)(C)c2c1ccc1ccccc21 | 698

same assay, conditions: in CC(=O)C(C)(C)C

Row | SMILES | emission maximum [nm]
39 | CC1=[N+]2C(=C(c3ccc(N4CCOCC4)cc3)c3ccc(C)n3[B-]2(F)F)C=C1 | 530

same assay, conditions: in CC(C)=O

Row | SMILES | emission maximum [nm]
40 | CC1=[N+]2C(=C(c3ccc(N4CCOCC4)cc3)c3ccc(C)n3[B-]2(F)F)C=C1 | 517
41 | COc1cc(/C=C/c2cc[n+](Cc3ccc(Br)cc3)cc2)ccc1O | 562
42 | CCCCN1\C(=C/C=C/C=C/C2=[N+](CCCC)c3ccc4ccccc4c3C2(C)C)C(C)(C)c2c1ccc1ccccc21 | 701

same assay, conditions: in CC(C)CO

Row | SMILES | emission maximum [nm]
43 | COc1cc(/C=C/c2cc[n+](Cc3ccc(Br)cc3)cc2)ccc1O | 556

same assay, conditions: in CC(C)O

Row | SMILES | emission maximum [nm]
44 | CC1(C)Oc2c(c3nc4ccccc4nc3c3ccccc23)CC1Br (stereo not given) | 464.25
45 | COc1cc(/C=C/c2cc[n+](Cc3ccc(Br)cc3)cc2)ccc1O | 559

same assay, conditions: in CCC#N

Row | SMILES | emission maximum [nm]
46 | COc1cc(/C=C/c2cc[n+](Cc3ccc(Br)cc3)cc2)ccc1O | 559

same assay, conditions: in CCCCC(CC)n1c2ccc(-n3c4ccccc4c4ccccc43)cc2c2cc(-n3c4ccccc4c4ccccc43)ccc21

Row | SMILES | emission maximum [nm]
47 | CC1(C)c2ccccc2N(c2cccc(S(=O)(=O)c3cccc(N4c5ccccc5C(C)(C)c5ccccc54)c3)c2)c2ccccc21 | 509.28

same assay, conditions: in CCCCCC

Row | emission maximum [nm] | SMILES
48 | 425 | Cc1ccc(-c2cc3ccccc3oc2=O)cc1
49 | 430.66 | CC1(C)Oc2c(c3nc4ccccc4nc3c3ccccc23)CC1Br (stereo not given)
50 | 466 | CC(C)[Si](C#Cc1ccc(C#C[Si](C(C)C)(C(C)C)C(C)C)c2nc3c(ccc4cc5ccccc5cc43)nc12)(C(C)C)C(C)C

Row | SMILES | emission maximum [nm]
51 | CCCCN1C(=O)C(=C/C=C/C=C/C=C2N(CCCC)c3ccccc3N2CCCC)C(=O)N(CCCC)C1=S | 707
52 | CC1=[N+]2C(=C(c3ccc(N4CCOCC4)cc3)c3ccc(C)n3[B-]2(F)F)C=C1 | 520

same assay, conditions: in CCCCCCO

Row | SMILES | emission maximum [nm]
53 | COc1cc(/C=C/c2cc[n+](Cc3ccc(Br)cc3)cc2)ccc1O | 553

same assay, conditions: in CCCCCO

Row | SMILES | emission maximum [nm]
54 | COc1cc(/C=C/c2cc[n+](Cc3ccc(Br)cc3)cc2)ccc1O | 554

same assay, conditions: in CCCCO

Row | SMILES | emission maximum [nm]
55 | COc1cc(/C=C/c2cc[n+](Cc3ccc(Br)cc3)cc2)ccc1O | 558

same assay, conditions: in CCCO

Row | SMILES | emission maximum [nm]
56 | COc1cc(/C=C/c2cc[n+](Cc3ccc(Br)cc3)cc2)ccc1O | 559

same assay, conditions: in CCO

Row | SMILES | emission maximum [nm]
57 | Cc1ccc(-c2cc3ccccc3oc2=O)cc1 | 408
58 | CCCCN1C(=O)C(=C/C=C/C=C/C=C2N(CCCC)c3ccccc3N2CCCC)C(=O)N(CCCC)C1=S | 685
59 | CCN(CC)c1ccc2cc3ccc(=[N+](CC)CC)cc-3oc2c1 | 557
60 | COc1cc(/C=C/c2cc[n+](Cc3ccc(Br)cc3)cc2)ccc1O | 564
61 | COC(=O)c1cc(=O)n(C)c2cc(-c3cc4c5c(c3)CCCN5CCC4)sc12 | 508
62 | CCN(CC)c1ccc2c(c1)OC1=C(/C=C/C3=[N+](C)c4ccc5ccccc5c4C3(C)C)CCCC1=C2c1ccccc1C(=O)O | 750
63 | CCCCN1\C(=C/C=C/C=C/C2=[N+](CCCC)c3ccc4ccccc4c3C2(C)C)C(C)(C)c2c1ccc1ccccc21 | 704
64 | O=C1c2ccccc2C2=Cc3cccc[n+]3[B-](F)(F)N12 | 449

same assay, conditions: in CCOC(C)=O

Row | SMILES | emission maximum [nm]
65 | Cc1ccc(C2=C3C=CC(c4ccccc4)=[N+]3[B-](F)(F)n3c2ccc3-c2ccccc2)cc1 | 583
66 | OCc1cc2c(cc3ccc4cccc5ccc2c3c45)[nH]1 | 404
67 | CC1=[N+]2C(=C(c3ccc(N4CCOCC4)cc3)c3ccc(C)n3[B-]2(F)F)C=C1 | 520

same assay, conditions: in CN(C)C=O

Row | SMILES | emission maximum [nm]
68 | CCCCN1C(=O)C(=C/C=C/C=C/C=C2N(CCCC)c3ccccc3N2CCCC)C(=O)N(CCCC)C1=S | 690
69 | CC[N+]1(CC)CN2C(=N1)C(C(=O)O)=Cc1ccccc12 | 463
70 | CCN(CC)c1ccc2cc3ccc(=[N+](CC)CC)cc-3oc2c1 | 532
